Reference: patent US8603460B2, “Method of making a Lactobacillus reuteri with increased acid tolerance” (Brogaia AB, priority 2006, dated 2013)
≈ marks a conversion by molar mass, not a printed value. Like-named read-outs stand apart in the source and are kept apart here.

Assays:
[1] = system: 1063; test: MIC on MRS plates containing lincomycin or clindamycin; format: cell-based; conditions: strain 1063, anaerobic, 37° C., 24 h
Procedure: (§1) The bacteria were grown in MRS broth for 16 h at 37° C. […] After adsorption of the drops, the plates were incubated in anaerobic atmosphere at 37° C. for 24 h. The MIC was defined as the lowest antibiotic concentration for which there was no visible bacterial growth.

[2] = system: L. reuteri DSM 20016; test: as above; format: cell-based, Lactobacillus reuteri; conditions: Limosilactobacillus reuteri, DSM20016, strain DSM 20016 (negative control), anaerobic, 37° C., 24 h
Procedure: as §1

[3] = system: L. reuteri DSM 17938; test: as above; format: cell-based, Lactobacillus reuteri; conditions: strain DSM 17938, anaerobic, 37° C.
Procedure: as §1

[4] = system: L. reuteri DSM 17686; test: as above; format: cell-based, Lactobacillus reuteri; conditions: 37° C., 24 h
Procedure: as §1

[5] = system: L. reuteri ATCC 55730; test: as above; format: cell-based, Lactobacillus reuteri; conditions: Limosilactobacillus reuteri, ATCC55730, strain ATCC 55730, anaerobic, 37° C., 24 h
Procedure: as §1

[6] = system: L. reuteri DSM 17938; test: MIC to tetracycline with Etest; format: cell-based, Lactobacillus reuteri; conditions: strain DSM 17938; MRS agar
Procedure: (§2) The bacteria were grown in MRS broth for 16 h at 37° C. After dilution to 10^5 cfu ml^−1, 1 μl of each bacterial strain was spotted on MRS plates containing lincomycin or clindamycin (concentrations 0, 0.125, 0.25, 0.5, 1, 2, 4, 8 and 16 μg ml^−1). After adsorption of the drops, the plates were incubated in anaerobic atmosphere at 37° C. for 24 h. The MIC was defined as the lowest antibiotic concentration for which there was no visible bacterial growth. MICs to tetracycline were tested with Etest (AB Biodisk) on bacteria growing on MRS agar (Oxoid) plates according to the instructions from the manufacturer.

[7] = system: L. reuteri DSM 17686; test: MIC to tetracycline with Etest; format: cell-based, Lactobacillus reuteri; conditions: strain DSM 17686; MRS agar
Procedure: as §2

[8] = system: L. reuteri ATCC 55730; test: MIC to tetracycline with Etest; format: cell-based, Lactobacillus reuteri; conditions: Limosilactobacillus reuteri, ATCC55730; strain ATCC 55730; MRS agar; read-out: MIC to tetracycline (E-test)
Procedure: as §2

[9] = Limosilactobacillus reuteri, DSM17938, 24 h, read-out: MIC
[10] = Limosilactobacillus reuteri, DSM17686, strain DSM 17686, anaerobic, read-out: MIC

Row | SMILES | MIC [1] [µg/mL] | MIC [2] [µg/mL] | MIC [3, 9] [µg/mL] | MIC [4, 10] [µg/mL] | MIC [5] [µg/mL] | MIC ([3]; 24 h) [µg/mL] | MIC ([4]; strain DSM 17686, anaerobic) [µg/mL] | MIC to tetracycline (E-test) [6] | MIC to tetracycline (E-test) [7] | MIC [8] [µg/mL]
1 | CCC[C@@H]1C[C@@H](C(=O)N[C@@H]([C@H]2O[C@H](SC)[C@H](O)[C@@H](O)[C@H]2O)[C@H](C)Cl)N(C)C1 [clindamycin] | > 16 | < 0.125 | < 0.125 | < 0.125 | < 0.125 | – | – | – | – | –
2 | CCC[C@@H]1C[C@@H](C(=O)N[C@@H]([C@H]2O[C@H](SC)[C@H](O)[C@@H](O)[C@H]2O)[C@@H](C)O)N(C)C1 [lincomycin] | > 16 | 0.25 (≈ 0.615 µM) | 0.25 (≈ 0.615 µM) | > 16 | > 16 | 0.5 (≈ 1.23 µM) | >16 | – | – | –
3 | CN(C)[C@@H]1C(O)=C(C(N)=O)C(=O)[C@@]2(O)C(O)=C3C(=O)c4c(O)cccc4[C@@](C)(O)[C@H]3C[C@@H]12 [tetracycline] | – | – | – | – | – | – | – | 12-16 μml-1 | 12-16 μml-1 | > 256
